Measured values: patent publication US20240116946A1 (Gilead Sciences, Inc., priority 2022, published 2024)
Read-outs that look alike come from different tables or passages of the source.

Legend:
[1] = system: SARS-CoV-2-NLuc; assay: microbe, parasite or virus in culture; format: cell-based, SARS Coronavirus 2
[2] = target: recombinant SARS-CoV-2 Main protease (Mpro) (Severe acute respiratory syndrome coronavirus 2 (2019-nCoV) (SARS-CoV-2), UniProt P0DTD1); assay: Cov Mpro Biochemical IC50 Assay; details: fluorogenic peptide substrate
[3] = Severe acute respiratory syndrome coronavirus, 48 h, read-out: MPro EC50
[4] = recombinant SARS-CoV-2 Mpro, read-out: MPro IC50
[5] = Severe acute respiratory syndrome coronavirus, 48 h; read-out: MPro EC50
[6] = MPro IC50, recombinant SARS-CoV-2 Mpro

| Compound | EC50 [1, 3] [nM] | IC50 [2, 4] [nM] | EC50 [1, 5] [nM] | IC50 [2, 6] [nM] |
| --- | --- | --- | --- | --- |
| O=C1NCc2c1cccc2-c1cccc(Cl)c1-c1ccc2c(=O)n(-c3cncc4ccccc34)c(=O)[nH]c2c1 [Example 193] | 65.6 | 7.69 | – | – |
| O=C1NCCc2c1cccc2-c1cccc(Cl)c1-c1ccc2c(=O)n(-c3cncc4ccccc34)c(=O)[nH]c2c1 [Example 194] | 20.6 | < 2.54 | – | – |
| CN1C(=O)COc2cc(-c3cccc(Cl)c3-c3ccc4c(=O)n(-c5cncc6ccccc56)c(=O)[nH]c4c3)cnc21 [Example 195] | 9.06 | 8.82 | – | – |
| CN1C(=O)COc2ccc(-c3cccc(Cl)c3-c3ccc4c(=O)n(-c5cncc6ccccc56)c(=O)[nH]c4c3)cc21 [Example 196] | 15.6 | 17.4 | – | – |
| CN1C(=O)COc2cc(-c3cccc(Cl)c3-c3ccc4c(=O)n(-c5cncc6ccccc56)c(=O)[nH]c4c3)ccc21 [Example 197] | 8.58 | 13.9 | – | – |
| Cc1cncc(-c2cccc(Cl)c2-c2ccc3c(=O)n(-c4cncc5ccccc45)c(=O)[nH]c3c2)c1 [Example 198] | 8.47 | 8.77 | – | – |
| COc1cncc(-c2cccc(Cl)c2-c2ccc3c(=O)n(-c4cncc5ccccc45)c(=O)[nH]c3c2)c1 [Example 199] | 25.4 | 19.3 | – | – |
| CCCn1cc(-c2cccc(Cl)c2-c2ccc3c(=O)n(-c4cncc5ccccc45)c(=O)[nH]c3c2)c(C(F)(F)F)n1 [Example 200] | 36 | 112 | – | – |
| CC(C)Cn1cc(-c2cccc(Cl)c2-c2ccc3c(=O)n(-c4cncc5ccccc45)c(=O)[nH]c3c2)c(C(F)(F)F)n1 [Example 201] | 59 | 110 | – | – |
| COc1cc(-c2cc3[nH]c(=O)n(-c4cncc5ccccc45)c(=O)c3cc2F)c(C#N)cc1F [Example 202, 5-fluoro-2-[6-fluoro-3-(4-isoquinolyl)-2,4-dioxo-1H-quinazolin-7-yl]-4-methoxy-benzonitrile] | 18.4 | 13.6 | – | – |
| CS(=O)(=O)c1cncc(-c2cccc(Cl)c2-c2ccc3c(=O)n(-c4cncc5ccccc45)c(=O)[nH]c3c2)c1 [Example 203] | 26.9 | 11.1 | – | – |
| CS(=O)(=O)c1ccc(-c2cccc(Cl)c2-c2ccc3c(=O)n(-c4cncc5ccccc45)c(=O)[nH]c3c2)cn1 [Example 204] | 49 | 11.7 | – | – |
| Cc1c(C#N)cncc1-c1cccc(Cl)c1-c1ccc2c(=O)n(-c3cncc4ccccc34)c(=O)[nH]c2c1 [Example 205] | 41.2 | 44 | – | – |
| O=c1[nH]c2cc(-c3c(Cl)cccc3-c3cncc(C(F)(F)F)c3)ccc2c(=O)n1-c1cncc2ccccc12 [Example 206] | 20.6 | 42.4 | – | – |
| O=c1[nH]c2cc(-c3c(Cl)cccc3-c3cncc(F)c3)ccc2c(=O)n1-c1cncc2ccccc12 [Example 207] | 13.6 | 17.6 | – | – |
| Cc1cc(-c2cccc(Cl)c2-c2ccc3c(=O)n(-c4cncc5ccccc45)c(=O)[nH]c3c2)cc(C)n1 [Example 208] | 4.21 | 7.56 | – | – |
| CC(C)(O)c1cncc(-c2cccc(Cl)c2-c2ccc3c(=O)n(-c4cncc5ccccc45)c(=O)[nH]c3c2)c1 [Example 209] | 23.6 | 10.4 | – | – |
| COc1ccc(OC)c(-c2ccc3c(=O)n(-c4cncc5ccccc45)c(=O)[nH]c3c2)c1 [Example 210] | 2980 | 2830 | – | – |
| COc1ccc(Cl)c(-c2cc3[nH]c(=O)n(-c4cncc5ccccc45)c(=O)c3cc2F)c1 [Example 211] | – | 55.5 | 70.4 | – |
| COc1cc(F)c(Cl)c(-c2ccc3c(=O)n(-c4cncc5ccccc45)c(=O)[nH]c3c2)c1 [Example 212] | 752 | 831 | – | – |
| COc1c(C)cncc1-n1c(=O)[nH]c2cc(-c3ccccc3Cl)sc2c1=O [Example 213] | – | 16.4 | 31.1 | – |
| COCCOc1c(C)cncc1-n1c(=O)[nH]c2cc(-c3ccccc3Cl)sc2c1=O [Example 214] | – | 11.1 | 20.1 | – |
| COCCOCCOc1c(C)cncc1-n1c(=O)[nH]c2cc(-c3ccccc3Cl)sc2c1=O [Example 215] | 94.1 | 10.7 | – | – |
| Cc1ccncc1-n1c(=O)[nH]c2cc(-c3ccccc3Cl)sc2c1=O [Example 216] | 112 | 62.3 | – | – |
| CCc1cncc(-n2c(=O)[nH]c3cc(-c4ccccc4Cl)sc3c2=O)c1 [Example 217] | 96.2 | 66.6 | – | – |

| Compound | EC50 [1, 3] [nM] | IC50 [2, 4] [nM] | EC50 [1, 5] [nM] | IC50 [2, 6] [nM] |
| --- | --- | --- | --- | --- |
| COc1ccc(C#N)c(-c2ccc3c(=O)n(-c4cncc5cccnc45)c(=O)[nH]c3c2)c1 [Example 218] | – | 20.9 | 82.8 | – |
| COc1ccc(Cl)c(-c2cnc3c(=O)n(-c4cncc5ccccc45)c(=O)[nH]c3c2)c1 [Example 219] | – | 5.06 | 181 | – |
| COC(=O)Cn1c(=O)n(-c2cncc3ccccc23)c(=O)c2sc(-c3ccccc3Cl)cc21 [Example 220] | 86.6 | 29.1 | – | – |
| COc1ccc(Cl)c(-c2cc(F)c3c(=O)n(-c4cncc5ccccc45)c(=O)[nH]c3c2)c1 [Example 221] | – | 65.8 | 50.6 | – |
| O=c1[nH]c2cc(-c3ccccc3Cl)cc(F)c2c(=O)n1-c1cncc2ccccc12 [Example 222] | 151 | 153 | – | – |
| N#Cc1ccccc1-c1cc(F)c2c(=O)n(-c3cncc4ccccc34)c(=O)[nH]c2c1 [Example 223] | – | 101 | 414 | – |
| COc1ccc(C#N)c(-c2cc3[nH]c(=O)n(-c4cncc5ccc(C(F)F)cc45)c(=O)c3s2)c1 [Example 224] | 124 | 10.2 | – | – |
| COc1ccc(C#N)c(-c2cc3[nH]c(=O)n(-c4cncc(C)c4OCC(F)(F)F)c(=O)c3s2)c1 [Example 225] | 87.7 | 12.1 | – | – |
| COc1ccc(Cl)c(-c2cc3[nH]c(=O)n(-c4cncc5ccc(N6CCS(=O)(=O)CC6)cc45)c(=O)c3s2)c1 [Example 226] | 23.7 | 3.74 | – | – |
| COc1ccc(Cl)c(-c2cc3[nH]c(=O)n(-c4cncc5ccc(C(F)F)cc45)c(=O)c3s2)c1 [Example 227] | 25 | 11.3 | – | – |
| O=c1[nH]c2cc(-c3ccccc3Cl)sc2c(=O)n1-c1cncc2ccc(N3CC(F)(F)OC(F)(F)C3)cc12 [Example 228] | 73.1 | 294 | – | – |
| COc1ccc(Cl)c(-c2cc3[nH]c(=O)n(-c4cncc5ccc(N6CC(F)(F)OC(F)(F)C6)cc45)c(=O)c3s2)c1 [Example 229] | 28.9 | 22.5 | – | – |
| COc1ccc(C#N)c(-c2cc3[nH]c(=O)n(-c4cncc5ccc(N6CC(F)(F)OC(F)(F)C6)cc45)c(=O)c3s2)c1 [Example 230] | 128 | 23.8 | – | – |
| O=c1[nH]c2cc(-c3ccccc3Cl)sc2c(=O)n1-c1cncc2ccc(N3CC4C(C3)C4(F)F)cc12 (centres unmarked) [Example 231] | 37.4 | 22.1 | – | – |
| COc1ccc(Cl)c(-c2cc3[nH]c(=O)n(-c4cncc5ccc(N6CC7C(C6)C7(F)F)cc45)c(=O)c3s2)c1 (centres unmarked) [Example 232] | 34.9 | 17.6 | – | – |
| Cc1c(-c2cccc(Cl)c2-c2ccc3c(=O)n(-c4cncc5ccccc45)c(=O)[nH]c3c2)cn2ncnc2c1C [Example 233] | 26.8 | 12.3 | – | – |
| Cc1cc(-c2cccc(Cl)c2-c2ccc3c(=O)n(-c4cncc5ccccc45)c(=O)[nH]c3c2)cnn1 [Example 234] | 21.2 | < 5.67 | – | – |
| O=c1[nH]c2cc(-c3c(Cl)cccc3CO)sc2c(=O)n1-c1cncc2ccccc12 [Example 235] | – | 53.5 | 289 | – |
| O=C1NCc2ccc(-c3cccc(Cl)c3-c3ccc4c(=O)n(-c5cncc6ccccc56)c(=O)[nH]c4c3)cc21 [Example 236] | 228 | 86.8 | – | – |
| COc1ccc2cncc(-n3c(=O)[nH]c4cc(-c5ccccc5Cl)ccc4c3=O)c2c1 [Example 237] | 143 | 87 | – | – |
| COc1ccc(Cl)c(-c2ccc3c(=O)n(-c4cncc5ccc(OC)cc45)c(=O)[nH]c3c2)c1 [Example 238] | – | 48 | 54.5 | – |
| O=c1c2ccc(-c3ccccc3Cl)cc2[nH]c(=S)n1-c1cncc2ccccc12 [Example 239] | – | – | 1820 | 4840 |
| COc1ccc(Cl)c(-c2ccc3c(=O)n(-c4cncc5ccccc45)c(=S)[nH]c3c2)c1 [Example 240] | – | – | 520 | 1660 |
| O=c1[nH]c2cc(-c3c(Cl)cccc3-c3ccc4ncnn4c3)ccc2c(=O)n1-c1cncc2ccccc12 [Example 241] | 54 | 35 | – | – |
